From paper PMC10004267, “Resveratrol, a New Allosteric Effector of Hemoglobin, Enhances Oxygen Supply Efficiency and Improves Adaption to Acute Severe Hypoxia” (Molecules, 2023)

What was measured:
[1] = target: T1, hemoglobin of adult (HbA) (Homo sapiens, UniProt P68871+P69905); assay: SPR (OpenSPR, HbA immobilized on COOH chip, one-to-one model); supported by thermal shift (Tm1) and P50 shift; type: binding
T1 construct: gene HBA1; HbA tetramer purified from human whole blood; with hemoglobin subunit beta (HBB)
T1 sequence (P69905 2-142): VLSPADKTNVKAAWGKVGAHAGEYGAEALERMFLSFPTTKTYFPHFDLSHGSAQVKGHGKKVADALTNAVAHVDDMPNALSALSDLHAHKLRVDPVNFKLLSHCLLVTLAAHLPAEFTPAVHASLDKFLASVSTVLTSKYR
T1 sequence (P68871 2-147): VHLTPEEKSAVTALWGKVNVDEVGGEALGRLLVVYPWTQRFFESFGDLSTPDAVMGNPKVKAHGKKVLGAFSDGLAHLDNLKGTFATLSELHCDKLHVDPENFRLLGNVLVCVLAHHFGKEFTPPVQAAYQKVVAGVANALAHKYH

[2] = target: T2, hemoglobin of adult (HbA) (Homo sapiens, UniProt P68871); assay: SPR (OpenSPR, HbA immobilized), control compound; type: binding
T2 construct: gene HBB; HbA tetramer purified from human whole blood; with hemoglobin subunit alpha (HBA1)
T2 sequence (P68871 2-147): as above
T2 sequence (P69905 2-142 partner): as the sequence (P69905 2-142) above

| Kd [2] | SMILES | Kd [1] |
| --- | --- | --- |
| – | Oc1ccc(/C=C/c2cc(O)cc(O)c2)cc1 [RSV, 3,4′,5-trihydroxy-trans-stilbene] | 48.6 µM |
| 462 µM | O=C(O)C(COP(=O)(O)O)OP(=O)(O)O (centres unmarked) [2,3-DPG, 2,3-Diphosphoglycerate] | – |
